# Results: ChEMBL document CHEMBL1201862, “PubChem BioAssay data set” (2004)
#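 Cells were grown in 96-well plates and exposed to each compound for 48 hours at five concentrations; endpoints were interpolated linearly between bracketing concentrations, or set to the highest concentration if not reached. GI50 = concentration required for 50% inhibition of growth.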 Active and inactive are the calls of the source. Rule as the data show it: active = GI50 up to about 1.1 µM and inactive = higher.
# Key:
# Experiment in all cases: NCI-60 cell line screen, 48 h
# [1] = test system: UACC-62
# [2] = test system: IGROV-1
# [3] = test system: CCRF-CEM
# [4] = test system: MOLT-4
# [5] = test system: MDA-MB-435
# [6] = test system: HL-60
# [7] = test system: Malme-3M
# [8] = test system: M14
# [9] = test system: COLO 205
# [10] = test system: OVCAR-3
# [11] = test system: SR
# [12] = test system: A498
# [13] = test system: NCI-H460
# [14] = test system: HOP-62
# [15] = test system: HOP-92
# [16] = test system: UACC-257
# [17] = test system: K562
# [18] = test system: DU-145
# [19] = test system: HT-29
# [20] = test system: 786-0
# [21] = test system: SNB-19
# [22] = test system: A549
# [23] = test system: OVCAR-8
# [24] = test system: Hs-578T
# [25] = test system: OVCAR-5
# [26] = test system: NCI-H23
# [27] = test system: NCI-H226
# [28] = test system: RPMI-8226
# [29] = test system: SF-295
# [30] = test system: SK-MEL-28
# [31] = test system: SW-620
# [32] = test system: NCI/ADR-RES
# [33] = test system: LOX IMVI
# [34] = test system: EKVX
# [35] = test system: OVCAR-4
# [36] = test system: HCT-116
# [37] = test system: SK-MEL-5
# [38] = test system: PC-3
# [39] = test system: HCT-15
# [40] = test system: MCF7
# [41] = test system: UO-31
# [42] = test system: SF-539
# [43] = test system: T47D
# [44] = test system: SF-268
# [45] = test system: SN12C
# [46] = test system: SK-MEL-2
# [47] = test system: SNB-75
# [48] = test system: NCI-H522
# [49] = test system: ACHN
# [50] = test system: KM12
# [51] = test system: TK-10
# [52] = test system: RXF 393
# [53] = test system: CAKI-1
# [54] = test system: SK-OV-3
# [55] = test system: HCC 2998
# [56] = test system: U-251
# [57] = test system: MDA-N
# [58] = test system: MDA-MB-231
compound,measurement,setting,value
O=CC(O)C(O)C(O)C(O)COP(=O)(O)Cc1ccccc1 (stereo not given),GI50,[1],> 10 µM (inactive)
same,GI50,[2],> 10 µM (inactive)
same,GI50,[3],> 10 µM (inactive)
same,GI50,[4],> 10 µM (inactive)
same,GI50,[5],> 10 µM (inactive)
same,GI50,[6],> 10 µM (inactive)
same,GI50,[7],> 10 µM (inactive)
same,GI50,[8],> 10 µM (inactive)
same,GI50,[9],> 10 µM (inactive)
O=c1c2ccccc2nc2n1CCc1c-2[nH]c2ccc(Br)cc12,GI50,[10],> 100 µM (inactive)
same,GI50,[11],> 100 µM (inactive)
same,GI50,[12],> 100 µM (inactive)
same,GI50,[13],> 100 µM (inactive)
same,GI50,[14],16.3 µM (inactive)
same,GI50,[15],91.2 µM (inactive)
same,GI50,[16],> 100 µM (inactive)
same,GI50,[17],> 100 µM (inactive)
same,GI50,[18],> 100 µM (inactive)
same,GI50,[19],45.5 µM (inactive)
same,GI50,[20],31.8 µM (inactive)
same,GI50,[2],> 100 µM (inactive)
same,GI50,[21],> 100 µM (inactive)
same,GI50,[22],43.8 µM (inactive)
same,GI50,[3],> 100 µM (inactive)
same,GI50,[23],11.1 µM (inactive)
same,GI50,[24],> 100 µM (inactive)
same,GI50,[25],> 100 µM (inactive)
same,GI50,[26],> 100 µM (inactive)
same,GI50,[27],> 100 µM (inactive)
same,GI50,[4],> 100 µM (inactive)
same,GI50,[28],> 100 µM (inactive)
same,GI50,[29],8.61 µM (inactive)
same,GI50,[30],> 100 µM (inactive)
same,GI50,[31],59 µM (inactive)
same,GI50,[32],> 100 µM (inactive)
same,GI50,[33],> 100 µM (inactive)
same,GI50,[34],> 100 µM (inactive)
same,GI50,[35],6.43 µM (inactive)
same,GI50,[36],48.9 µM (inactive)
same,GI50,[7],> 100 µM (inactive)
same,GI50,[37],46 µM (inactive)
same,GI50,[8],> 100 µM (inactive)
CCn1ncc2c1nc(-c1ccccc1)c[n+]2[O-],GI50,[10],> 100 µM (inactive)
same,GI50,[11],> 100 µM (inactive)
same,GI50,[38],> 100 µM (inactive)
same,GI50,[13],> 100 µM (inactive)
same,GI50,[14],2.22 µM (inactive)
same,GI50,[16],> 100 µM (inactive)
same,GI50,[17],> 100 µM (inactive)
same,GI50,[18],5.82 µM (inactive)
same,GI50,[19],> 100 µM (inactive)
same,GI50,[1],6.15 µM (inactive)
same,GI50,[20],> 100 µM (inactive)
same,GI50,[2],> 100 µM (inactive)
same,GI50,[21],> 100 µM (inactive)
same,GI50,[39],> 100 µM
same,GI50,[40],46 µM (inactive)
same,GI50,[22],> 100 µM (inactive)
same,GI50,[3],> 100 µM (inactive)
same,GI50,[23],75 µM (inactive)
same,GI50,[41],62.8 µM (inactive)
same,GI50,[42],> 100 µM (inactive)
same,GI50,[24],61.1 µM (inactive)
same,GI50,[25],> 100 µM (inactive)
same,GI50,[26],> 100 µM (inactive)
same,GI50,[43],> 100 µM (inactive)
same,GI50,[4],> 100 µM (inactive)
same,GI50,[44],> 100 µM (inactive)
same,GI50,[28],> 100 µM (inactive)
same,GI50,[29],> 100 µM (inactive)
same,GI50,[30],> 100 µM (inactive)
same,GI50,[45],> 100 µM (inactive)
same,GI50,[46],> 100 µM (inactive)
same,GI50,[32],> 100 µM (inactive)
same,GI50,[33],7.01 µM (inactive)
same,GI50,[34],> 100 µM (inactive)
same,GI50,[5],> 100 µM (inactive)
same,GI50,[47],36.9 µM (inactive)
same,GI50,[36],63.7 µM (inactive)
same,GI50,[48],90.4 µM (inactive)
same,GI50,[8],77.6 µM (inactive)
same,GI50,[49],> 100 µM (inactive)
same,GI50,[9],> 100 µM (inactive)
same,GI50,[50],> 100 µM (inactive)
O=c1cc(-c2ccccc2)[nH]c2cc(F)c(F)cc12,GI50,[10],0.34 µM (active)
same,GI50,[11],0.189 µM (active)
same,GI50,[38],0.222 µM (active)
same,GI50,[13],0.565 µM (active)
same,GI50,[14],1.33 µM (inactive)
same,GI50,[15],0.789 µM (active)
same,GI50,[16],0.498 µM (active)
same,GI50,[17],0.29 µM (active)
same,GI50,[18],0.472 µM (active)
same,GI50,[19],0.998 µM (active)
same,GI50,[1],0.322 µM (active)
same,GI50,[51],3.83 µM (inactive)
same,GI50,[20],0.238 µM (active)
same,GI50,[2],0.634 µM (active)
same,GI50,[21],0.718 µM (active)
same,GI50,[39],0.472 µM
same,GI50,[40],0.323 µM (active)
same,GI50,[52],0.23 µM (active)
same,GI50,[22],0.463 µM (active)
same,GI50,[3],0.379 µM (active)
same,GI50,[23],0.824 µM (active)
same,GI50,[41],0.805 µM (active)
same,GI50,[42],0.342 µM (active)
same,GI50,[24],0.423 µM (active)
same,GI50,[25],1.89 µM (inactive)
same,GI50,[53],> 100 µM (inactive)
same,GI50,[26],0.653 µM (active)
same,GI50,[54],0.575 µM (active)
same,GI50,[27],1.55 µM (inactive)
same,GI50,[4],0.438 µM (active)
same,GI50,[44],1.45 µM (inactive)
same,GI50,[28],0.309 µM (active)
same,GI50,[55],5.11 µM (inactive)
same,GI50,[56],0.692 µM (active)
same,GI50,[29],1.21 µM (inactive)
same,GI50,[30],1.72 µM (inactive)
same,GI50,[45],1.97 µM (inactive)
same,GI50,[46],3.01 µM (inactive)
same,GI50,[31],0.355 µM (active)
same,GI50,[32],0.425 µM (active)
same,GI50,[33],0.494 µM (active)
same,GI50,[34],11.5 µM (inactive)
same,GI50,[5],0.1 µM (active)
same,GI50,[47],0.274 µM (active)
same,GI50,[35],> 51.4 µM (inactive)
same,GI50,[6],0.23 µM (active)
same,GI50,[36],0.417 µM (active)
same,GI50,[57],0.0764 µM (active)
same,GI50,[7],> 69.5 µM (inactive)
same,GI50,[48],0.385 µM (active)
same,GI50,[37],0.197 µM (active)
same,GI50,[8],0.392 µM (active)
same,GI50,[49],0.676 µM (active)
same,GI50,[9],0.661 µM (active)
same,GI50,[50],0.326 µM (active)
same,GI50,[58],1.44 µM (inactive)
